“And” between values parts separate entries of the source, which are not always exact repeats. Equal values may be shown once.
How the values were obtained:
[1] = Plasma stability and conversion to EFdA; settings: for half-life at 2 µM: human, plasma, pH 7.4
Procedure: The pooled frozen plasma was thawed in a water bath at 37° C. prior to experiment. Plasma was centrifuged at 4000 rpm for 5 min and the clots were removed if any. The pH will be adjusted to 7.4±0.1 if required.
Preparation of test compounds and positive control (propantheline bromide): 1 mM intermediate solution was prepared by diluting 10 μL of the stock solution with 90 μL MeOH; 1 mM intermediate of positive control Propantheline was prepared by diluting 10 μL of the stock solution with 90 μL ultrapure water. 100 μM dosing solution was prepared by diluting 20 μL of the intermediate solution (1 mM) with 180 μL MeOH. 98 μL of blank plasma was spiked with 2 μL of dosing solution (100 μM) to achieve 2 μM of the final concentration in duplicate and samples were incubated at 37° C. in a water bath. At each time point (0, 10, 30, 60 and 120 min), […] of stop solution (0.1% FA in MeOH containing 200 ng/mL tolbutamide and 200 ng/mL Labetalol) was added to precipitate protein and mixed thoroughly. Centrifuged sample plates at 4,000 rpm for 10 min. An aliquot of supernatant (100 μL) was transferred from each well to another plates.
Data analysis: The % remaining of test compound after incubation in plasma was calculated using following equation: % Remaining=100×(PAR at appointed incubation time/PAR at T0 time) where PAR is the peak area ratio of analyte versus internal standard (IS) (LC/MS/MS mobile phase condition: 0.1% Formic Acid in Water/0.1% Formic Acid in Acetonitrile. The appointed incubation time points are TO (0 min), Tn (n=0, 10, 30, 60, 120 min). Liver S9 Stability

[2] = Liver S9 stability and conversion to EFdA; format: in vitro ADME, human; settings: for half-life at 1 µM: human liver S9, 37° C.
Procedure: Intermediate solution: Dilute 5 μL of compounds or controls (7-ethoxycoumarin) from stock solution (10 mM) with 495 μL MeOH (Conc.: 100 μM, 1% DMSO, 99% MeOH). Stop solution: Cold ACN (including 100 ng/mL Tolbutamide and Labetalol as internal standard). Add 2 μL test compound or control working solution/well to all plates (T0, T5, T10, T20, T30, T60, NCF60) except matrix blank. Add 600 μL/well stop solution (cold in 4° C., including 100 ng/mL Tolbutamide/100 ng/mL Labetalol) to terminate the TO plate, then put it on ice. Dispense 840 μL/well S9 solution to 96-well plate as reservoir according to plate map. Then add 100 μL/well to every plate by Apricot. Incubate S9 solution and compound at 37° C. for about 10 min except NCF60 and TO. After adding S9 solution and 98 μLPB buffer to NCF60, incubate at 37° C. without pre-warming, start timer 1. After 60 min, add 600 μL/well stop solution to terminate the reaction. After pre-warming, dispense 760 μL/well cofactor solution to 96-well plate as reservoir according to plate map. Then add 98 μL/well to every plate by Apricot to start reaction. Incubate at 37° C., start timer 2, Add 600 μL/well stop solution (cold in 4° C., including 100 ng/mL Tolbutamide and Labetalol) to terminate the reaction. Samples are centrifuged at 4000 rpm for 20 min. While centrifuging, load 8×new 96-well plate with 300 μL HPLC water, then transfer 100 μL supernatant, mix with water for LC/MS/MS, transferred to Bioanalytical Services for LC-MS/MS analysis. Use equation of first order kinetics to calculate t1/2 and CL: Equation of first order kinetics: […]

[3] = Plasma exposures following oral administration to beagle dogs; settings: EFdA PO 5 mg/kg

SMILES | Stability in Human Plasma Formation of EFdA [1] | half-life at 2 µM [1] [min] | Stability in Human Liver S9 Formation of EFdA [2] | half-life at 1 µM [2] [min] | other results
C#C[C@]1(COC(=O)NCCN(C)Cc2oc(=O)oc2C)O[C@@H](n2cnc3c(N)nc(F)nc32)C[C@@H]1O [Formula 7-A, ((2R,3S,5R)-5-(6-amino-2-fluoro-9H-purin-9-yl)-2-ethynyl-3-hydroxytetrahydrofuran-2-yl)methyl (2-(methyl((5-methyl-2-oxo-1,3-dioxol-4-yl)methyl)amino)ethyl)carbamate] | No | 50 to 200 | No | < 50 | 
C#C[C@]1(COC(=O)OCc2oc(=O)oc2C)O[C@@H](n2cnc3c(N)nc(F)nc32)C[C@@H]1OC(=O)OCc1oc(=O)oc1C [Formula 4-C, ((2R,3S,5R)-5-(6-amino-2-fluoro-9H-purin-9-yl)-2-ethynyl-3-((((5-methyl-2-oxo-1,3-dioxol-4-yl)methoxy)carbonyl)oxy)tetrahydrofuran-2-yl)methyl ((5-methyl-2-oxo-1,3-dioxol-4-yl)methyl) carbonate] | Yes | < 50 | Yes | < 50 | Conversion to the target drug (EFdA) in human plasma assay [1]: converted to the target drug efficiently; Conversion to the target drug (EFdA) in liver S9 assay [2]: converted to the target drug efficiently
C#C[C@]1(CO)O[C@@H](n2cnc3c(NCc4oc(=O)oc4C)nc(F)nc32)C[C@@H]1O [Formula 6-A, 4-(((9-((2R,4S,5R)-5-ethynyl-4-hydroxy-5-(hydroxymethyl)tetrahydrofuran-2-yl)-2-fluoro-9H-purin-6-yl)amino)methyl)-5-methyl-1,3-dioxol-2-one] | No | < 50 | Yes | < 50 | Conversion to the target drug (EFdA) in liver S9 assay [2]: converted to the target drug efficiently
C#C[C@]1(COC(=O)NC(C)C)O[C@@H](n2cnc3c(N)nc(F)nc32)C[C@@H]1O [Formula 2-A, ((2R,3S,5R)-5-(6-amino-2-fluoro-9H-purin-9-yl)-2-ethynyl-3-hydroxytetrahydrofuran-2-yl)methyl isopropylcarbamate] | No | > 200 | No | 50 to 200 | 
C#C[C@]1(CO)O[C@@H](n2cnc3c(NC(=O)OC(C)C)nc(F)nc32)C[C@@H]1O [Formula 3-A, isopropyl (9-((2R,4S,5R)-5-ethynyl-4-hydroxy-5-(hydroxymethyl)tetrahydrofuran-2-yl)-2-fluoro-9H-purin-6-yl)carbamate] | No | > 200 | No | 50 to 200 | 
C#C[C@]1(COC(=O)NC)O[C@@H](n2cnc3c(N)nc(F)nc32)C[C@@H]1O [Formula 5-A, ((2R,3S,5R)-5-(6-amino-2-fluoro-9H-purin-9-yl)-2-ethynyl-3-hydroxytetrahydrofuran-2-yl)methyl methylcarbamate] | No | > 200 | No | 50 to 200 | 
C#C[C@]1(CO)O[C@@H](n2cnc3c(N)nc(F)nc32)C[C@@H]1O [Formula T-1A, (2R,3S,5R)-5-(6-amino-2-fluoro-9H-purin-9-yl)-2-ethynyl-2-(hydroxymethyl)tetrahydrofuran-3-ol, reference compound] |  |  |  |  | EFdA Concentrations in Dog Plasma ([3]; 0.250 hrs, individual animals, 5 mg/kg): 333 ng/mL and 276 ng/mL; EFdA Concentrations in Dog Plasma ([3]; 0.500 hrs, individual animals, 5 mg/kg): 299 ng/mL and 280 ng/mL; EFdA Concentrations in Dog Plasma ([3]; 1.00 hrs, individual animals, 5 mg/kg): 353 ng/mL and 361 ng/mL; EFdA Concentrations in Dog Plasma ([3]; 2.00 hrs, individual animals, 5 mg/kg): 212 ng/mL and 143 ng/mL; EFdA Concentrations in Dog Plasma ([3]; 4.00 hrs, individual animals, 5 mg/kg): 12.6 ng/mL and 17.9 ng/mL and 6.30 ng/mL; EFdA Concentrations in Dog Plasma ([3]; 6.00 hrs, individual animals): BQL; EFdA Concentrations in Dog Plasma ([3]; 8.00 hrs, individual animals): BQL; EFdA Concentrations in Dog Plasma ([3]; 12.0 hrs, individual animals): BQL; EFdA Concentrations in Dog Plasma ([3]; 24.0 hrs, individual animals): BQL; concentration at 0.25 h ([3]; male, beagle, dog, in vivo, po, 5 mg/kg, EFdA Concentrations in Dog Plasma, 0.250 hrs, Mean): 355 ng/mL; concentration at 0.25 h ([3]; male, beagle, dog, in vivo, po, 5 mg/kg, EFdA Concentrations in Dog Plasma, 0.250 hrs, individual animals): 456 ng/mL; concentration at 0.5 h ([3]; male, beagle, dog, in vivo, po, 5 mg/kg, EFdA Concentrations in Dog Plasma, 0.500 hrs, Mean): 323 ng/mL; concentration at 0.5 h ([3]; male, beagle, dog, in vivo, po, 5 mg/kg, EFdA Concentrations in Dog Plasma, 0.500 hrs, individual animals): 391 ng/mL; concentration at 1 h ([3]; male, beagle, dog, in vivo, po, 5 mg/kg, EFdA Concentrations in Dog Plasma, 1.00 hrs, Mean): 361 ng/mL; concentration at 1 h ([3]; male, beagle, dog, in vivo, po, 5 mg/kg, EFdA Concentrations in Dog Plasma, 1.00 hrs, individual animals): 369 ng/mL; concentration at 2 h ([3]; male, beagle, dog, in vivo, po, 5 mg/kg, EFdA Concentrations in Dog Plasma, 2.00 hrs, Mean): 189 ng/mL; concentration at 2 h ([3]; male, beagle, dog, in vivo, po, 5 mg/kg, EFdA Concentrations in Dog Plasma, 2.00 hrs, individual animals): 211 ng/mL; concentration at 4 h ([3]; male, beagle, dog, in vivo, po, 5 mg/kg, EFdA Concentrations in Dog Plasma, 4.00 hrs, Mean): 12.3 ng/mL

Source: US12257264B2, “Combination therapy for HIV with adenosine derivative and capsid inhibitors” (Brii Biosciences, Inc., priority 2021, dated 2025)
